Reference: patent US8110592B2, “Agrochemical formulations that can be dispersed in water containing polyalkoxytriglycerides as penetration enhances” (priority 2006, dated 2012)

Test system: apple leaf cuticles
Assay: Penetration of active compounds through enzymatically isolated apple leaf cuticles
Format: in vitro ADME, apple trees of the Golden Delicious variety
Source text: Penetration* of spirotetramate with penetrants according to the invention compared to the control without penetrant and the rapid-action uptake enhancer Genapol® X150. All penetrants employed at 0.5 g/l.
This test measured the penetration of active compounds through enzymatically isolated cuticles of apple leaves.
The leaves used were cut in the fully developed state from apple trees of the Golden Delicious variety. The cuticles were isolated as follows: • first of all, leaf discs labelled on the underside with dye and formed by punching were filled by means of vacuum infiltration with a pectinase solution (0.2% to 2% strength) buffered to a pH of between 3 and 4, • then sodium azide was added and • the leaf discs thus treated were left to stand until the original leaf structure broke down and the non-cellular cuticles underwent detachment.
Thereafter only those cuticles from the top leaf sides that were free from stomata and hairs were used further. They were washed a number of times in alternation with water and with a buffer solution, pH 7. The clean cuticles obtained were, finally, applied to Teflon plaques and smoothed and dried with a gentle jet of air.
In the next step the cuticular membranes obtained in this way were placed in stainless steel diffusion cells (transport chambers) for the purpose of membrane transport investigations. For these investigations the cuticles were placed centrally using tweezers on the edges of the diffusion cells, which were coated with silicone grease, and sealed with a ring, which was likewise greased. The arrangement was chosen so that the morphological outer side of the cuticles was directed outwards, in other words to the air, while the original inner side was facing the interior of the diffusion cell.
The diffusion cells were filled with a 1% phospholipid suspension. Penetration was determined by applying in each case 10 μl of the spray liquor of the composition below, containing radiolabeled active compound in the stated concentrations, to the outer face of the cuticles. The spray liquor is prepared using local tap water of average hardness.
After the spray liquors had been applied, the water was evaporated and then the chambers were inverted and placed in thermostatted troughs, in which the temperature and air humidity over the cuticles was adjustable by means of a gentle air stream onto the cuticles with the spray coating (20° C., 60% rh). At regular intervals, an autosampler took aliquots which were subjected to measurement in a scintillation counter.
Facilitation of the penetration of various active compounds* by penetrants according to the invention exemplified by Crovol® CR70G in comparison to the control.

[1] = spirotetramate 0.2 g/l, control without additive
[2] = with 0.5 g/l Crovol CR70G, after 24 hours
[3] = with 0.5 g/l Crovol CR70G, after 72 hours
[4] = without Crovol CR70G, after 24 hours
[5] = without Crovol CR70G, after 72 hours

Compound	% penetration (after hours) (apple (Malus domestica), 24 h) [%]	% penetration (after hours) (apple (Malus domestica), 48 h) [%]	% penetration (after hours) (apple (Malus domestica), 6 h) [%]	% penetration (after hours) (apple (Malus domestica), 18 h) [%]	% penetration after 24 h [1] [%]	% penetration after 3 days [1] [%]	% penetration (after hours) [2] [%]	% penetration (after hours) [3] [%]	% penetration (after hours) [4] [%]	% penetration (after hours) [5] [%]
O=[N+]([O-])NC1=NCCN1Cc1ccc(Cl)nc1 [Imidacloprid, imidacloprid]	0.7	2.2	–	–	–	–	–	–	–	–
CS(=O)(=O)c1ccc(C(=O)C2C(=O)CCCC2=O)c(Cl)c1COCC(F)(F)F [Tembotrione, tembotrione]	–	–	<1	<1	–	–	–	–	–	–
CCOC(=O)OC1=C(c2cc(C)ccc2C)C(=O)N[C@]12CC[C@@H](OC)CC2 [spirotetramate]	–	–	–	–	0.1	0.3	5.8	40.5	0.1	0.3
CC(C)(C)C(O)(CCc1ccc(Cl)cc1)Cn1cncn1 (centres unmarked) [Tebuconazole, tebuconazole]	–	–	–	–	–	–	6.0	31.5	<2	<2
